Active and inactive are the calls of the source. The calls are words filed in the database; no cut-off is given here.

The target of series [1] is T1, DCN1-like protein 1 (Homo sapiens, UniProt Q96GG9). Description: Inhibition of GST-tagged DCN1 (unknown origin) using AcUBE2M1-21 incubated for 30 mins by HTRF assay. (In general: Time-resolved FRET reads energy transfer from a long-lived donor to a nearby acceptor.)
Series [2] can be described thus: Toxicity in 24 hr starved C57BL/6 mouse assessed as pathological change in lungs at 2 g/Kg administered via gavage measured after 2 weeks by H and E staining based histopathological analysis. Conditions: in vivo, po, 2000 mg/kg.
In series [3] the test system is Cardiac fibroblast. Description: Inhibition of DCN1 in Ang II-treated Sprague-Dawley rat cardiac fibroblast assessed as decrease in cell migration preincubated for 2 hrs followed by Ang-II stimulation and further incubated for 24 hrs by scratch wound healing assay based microscopy. Particulars: Sprague-Dawle, time 26.0 hrs.
In another series the target is T2, DCN1-like protein 3 (Homo sapiens, UniProt Q8IWE4).
T2 sequence (Q8IWE4 whole entry): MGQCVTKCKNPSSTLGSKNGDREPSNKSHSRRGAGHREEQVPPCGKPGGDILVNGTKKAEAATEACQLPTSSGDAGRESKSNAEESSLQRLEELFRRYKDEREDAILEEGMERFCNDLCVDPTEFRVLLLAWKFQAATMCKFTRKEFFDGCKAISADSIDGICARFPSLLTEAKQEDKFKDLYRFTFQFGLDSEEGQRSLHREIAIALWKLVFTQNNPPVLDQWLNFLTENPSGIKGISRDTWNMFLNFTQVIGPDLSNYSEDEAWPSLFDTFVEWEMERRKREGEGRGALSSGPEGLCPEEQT
Kind of series: Binding affinity to DCN3 (unknown origin) assessed as inhibitory constant.

Series [4] in a line: Toxicity in 24 hr starved C57BL/6 mouse assessed as pathological change in heart at 2 g/Kg administered via gavage measured after 2 weeks by H and E staining based histopathological analysis. It counts as tissue-based. Conditions: in vivo, po, 2000 mg/kg.
Series [5] concerns Fibroblast of cardiac tissue. Description: Antifibrotic effect in SD rat cardiac fibroblast transfected with DCN1 siRNA assessed as effect on collagen I expression at 1 uM preincubated for 2 hrs followed by Ang II-stimulation and further incubated for 24 hrs by western blot analysis. It counts as functional, cell-based. Particulars: time 26.0 hrs. A general note: In western blotting, separated proteins are transferred to a membrane and probed.

The species entered for another series is Homo sapiens. Description: Inhibition of NEDD8-UBC12 (unknown origin) interaction in presence of ATP at 100 uM by densitometry. Conditions: time 10.0 min.
Series [6] relates to Fibroblast of cardiac tissue. Description: Reversal of Ang II-induced increase in collagen I secretion in mouse cardiac fibroblast at 1 uM preincubated for 2 hrs followed by Ang-II stimulation and further incubated for 24 hrs by western blot analysis. It counts as functional, cell-based. Particulars: time 26.0 hrs.
Series [7] has as its system Fibroblast of cardiac tissue. Kind of series: Reversal of Ang II-induced decrease in Nrf2 secretion in mouse cardiac fibroblast at 1 uM preincubated for 2 hrs followed by Ang-II stimulation and further incubated for 24 hrs by western blot analysis. It counts as functional, cell-based. Conditions: time 26.0 hrs.
The target of series [8] is T1, DCN1-like protein 1. Description: Binding affinity to […] DCN1 (unknown origin) assessed as dissociation constant incubated for upto 180 secs by label-free biolayer interferometry assay. For orientation: In BLI a coated tip is dipped into the sample, and binding shifts an interference pattern.
Series [9] has as its system Fibroblast of cardiac tissue. Kind of series: Antifibrotic effect in SD rat cardiac fibroblast transfected with DCN1 siRNA assessed as effect on collagen III expression at 1 uM preincubated for 2 hrs followed by Ang II-stimulation and further incubated for 24 hrs by western blot analysis. It counts as functional, cell-based. Conditions: time 26.0 hrs.
Series [10] has as its system Fibroblast of cardiac tissue. Kind of series: Antifibrotic effect in SD rat cardiac fibroblast assessed as reduction in Ang II-induced activation of Nrf2 signaling pathway preincubated for 2 hrs followed by Ang II-stimulation and further incubated for 24 hrs by western blot analysis (reference value: 43 %). It counts as functional. Conditions: time 26 hrs.
In series [11] the test system is Fibroblast of cardiac tissue. Kind of series: Effect on Cul4A neddylation in mouse cardiac fibroblast at 1 uM preincubated for 2 hrs by Western blot analysis. It counts as functional, cell-based.
Series [12] relates to Cardiac fibroblast. Kind of series: Inhibition of DCN1 in Ang II-treated Sprague-Dawley rat cardiac fibroblast assessed as inhibited cell migration at 0.1 to 3 uM incubated for 24 hrs stained with crystal violet by transwell migration assay. Particulars: Sprague-Dawle, dose 0.1-3 µM. It counts as cell-based.
In series [13] the test system is Fibroblast of cardiac tissue. Kind of series: Reversal of Ang II-induced increase in collagen III secretion in mouse cardiac fibroblast at 1 uM preincubated for 2 hrs followed by Ang-II stimulation and further incubated for 24 hrs by western blot analysis. It counts as functional, cell-based. Conditions: time 26.0 hrs.
In series [14] the test system is Fibroblast of cardiac tissue. Description: Effect on Ang II-induced in Cul4A neddylation in mouse cardiac fibroblast at 1 uM preincubated for 2 hrs followed by Ang-II stimulation and further incubated for 24 hrs by western blot analysis. It counts as functional, cell-based. Particulars: time 26.0 hrs.

T1 sequence (Q96GG9 whole entry): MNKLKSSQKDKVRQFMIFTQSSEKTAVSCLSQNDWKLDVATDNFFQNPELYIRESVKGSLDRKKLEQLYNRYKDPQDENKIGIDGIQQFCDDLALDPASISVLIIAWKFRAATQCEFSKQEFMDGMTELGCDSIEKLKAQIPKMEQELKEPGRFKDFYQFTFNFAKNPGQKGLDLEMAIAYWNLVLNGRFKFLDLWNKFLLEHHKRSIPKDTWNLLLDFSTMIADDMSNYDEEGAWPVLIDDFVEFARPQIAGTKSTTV

A word on the IC50: it is the concentration needed to halve the response being measured. Low values mean inhibition by little substance, high ones a need for much substance. As usually defined, the Ki is the equilibrium dissociation constant of an inhibitor or competing ligand from its target. Broadly, the Kd is the constant that tells how readily two partners part at equilibrium. The compound `COc1cc(-c2nc(SCc3ccc(Cl)cc3)nc(Sc3nnnn3C)c2C#N)cc(OC)c1OC` had an IC50 on DCN1-like protein 1 [1] of 9.55 nM. Further, the Activity entry in [2] and in [4] was “Non-Toxic” throughout. Also, the inhibition result in the series on Cardiac fibroblast [3] and with Cardiac fibroblast [12] was “Active” each time. In addition, the Ki at DCN1-like protein 3 stood at 385 µM. Moreover, the inhibition result (in [5]; in the series listed under Homo sapiens; in series [9]) was “inactive” in each case. In addition, the outcome in [6], in [7], in series [11], in series [13] and in series [14] was Active. In addition, the Kd at DCN1-like protein 1 [8] stood at 26 nM. For the same compound, the “inhibition (INH)” value in series [10] is on record as 37%.

For the origin of these results see ChEMBL document CHEMBL5042502, “Discovery of Potent and Selective 2-(Benzylthio)pyrimidine-based DCN1-UBC12 Inhibitors for Anticardiac Fibrotic Effects” (J Med Chem, 2022).
